These results are taken from ChEMBL document CHEMBL5579895, “Discovery of TYRA-300: First Oral Selective FGFR3 Inhibitor for the Treatment of Urothelial Cancers and Achondroplasia” (J Med Chem, 2024).

Molecules are shown by their SMILES. Activity calls are given as the source filed them.

The nature of data set [1]: Inhibition of recombinant BCR/FGFR2 (unknown origin) transduced in mouse BaF3 cells incubated for 48 hrs by Cell Titer Glo assay. The conditions noted are these: BaF3, 48 h. It is filed as cell-based.
A short description of data set [2]: Inhibition of recombinant BCR/FGFR1 (unknown origin) transduced in mouse BaF3 cells incubated for 48 hrs by Cell Titer Glo assay. The class given is cell-based. The conditions noted are these: BaF3, 48 h. Background: Cellular ATP, detected with luciferase, serves as a proxy for viable cell number.
A short description of data set [3]: Stability in human hepatocytes assessed as half life at 1 uM incubated upto 180 mins by LC-MS/MS analysis. It is filed as ADME, cell-based, Hepatocyte.
Data set [4] in a line: Inhibition of recombinant FGFR3/BAIAP2L1 (unknown origin) transduced in mouse BaF3 cells incubated for 48 hrs by Cell Titer Glo assay. The class given is cell-based. The conditions noted are these: BaF3, 48 h.
Data set [5] is described as follows: Inhibition of recombinant BCR/FGFR4 (unknown origin) transduced in mouse BaF3 cells incubated for 48 hrs by Cell Titer Glo assay. The class given is cell-based. The conditions noted are these: BaF3, 48 h.
Data set [6] deals with RT112/84. The data set is described as follows: Antitumor activity against human RT112/84 cells harboring FGFR3/TACC3 fusion xenografted in Balb/c nude mouse model at 15 mg/kg, po bid treated for 21 days relative to control. It is filed as functional. The conditions noted are these: for inhibition in vivo at 15 mg/kg: RT112/84, 504 h, time 21 day, read-out: TGI. A general note: In xenograft studies the graft and the host belong to different species.

The subject of data set [7] is RT112/84. Briefly: cells. It is filed as functional, cell-based. The conditions noted are these: Homo sapiens.
Description: Inhibition of cell viability in human RT112/84 cells harboring FGFR3 V555M mutant incubated for 72 to 120 hrs by Cell Titer Glo assay
The test system of the next data set is KG-1. The data set is described as follows: Inhibition of cell viability in human KG-1 cells harboring FGFR1-fusion incubated for 72 to 120 hrs by Cell Titer Glo assay. It is filed as functional, cell-based.
Data set [8] has as its system RT112/84. Briefly: cells. The class given is functional, cell-based. The conditions noted are these: Homo sapiens. This is another data set of the same source.
Description: Inhibition of cell viability in human RT112/84 cells harboring FGFR3/TACC3 fusion incubated for 72 to 120 hrs by Cell Titer Glo assay
The nature of data set [9]: Inhibition of cell viability in human UMUC14 cells harboring FGFR3 S249C mutant incubated for 72 to 120 hrs by Cell Titer Glo assay. The class given is functional, cell-based.
For data set [10], the system named is RT112/84. The data set is described as follows: animal or person. It is filed as functional, Homo sapiens. The conditions noted are these: Mus musculus, RT112/84, 504 h, route po, time 21 day, read-out: TGI.
Description: Antitumor activity against human RT112/84 cells harboring FGFR3 V555M mutant xenografted in Balb/c nude mouse model at 12.5 mg/kg, po bid treated for 21 days relative to control
Data set [11] can be described thus: Inhibition of cell viability in human UMUC14 cells harboring FGFR3 V555M mutant incubated for 72 to 120 hrs by Cell Titer Glo assay. It is filed as functional, cell-based.
A further data set deals with DMS-114. The data set is described as follows: Inhibition of cell viability in human DMS-114 cells harboring FGFR1-amplification incubated for 72 to 120 hrs by Cell Titer Glo assay. It is filed as functional, cell-based.
Data set [12] concerns RT112/84. Briefly: animal or person. The class given is functional, Homo sapiens. The conditions noted are these: Mus musculus, RT112/84, 504 h, route po, time 21 day, read-out: TGI. This is another data set of the same source.
Description: Antitumor activity against human RT112/84 cells harboring FGFR3/TACC3 fusion xenografted in Balb/c nude mouse model at 12.5 mg/kg, po bid treated for 21 days relative to control
The subject of a further data set is RT-4. The data set is described as follows: Inhibition of cell viability in human RT-4 cells harboring FGFR3/TACC3 fusion incubated for 72 to 120 hrs by Cell Titer Glo assay. It is filed as functional, cell-based.

In general, IC50 refers to the concentration at which inhibition is half-maximal. By half-life is commonly meant the time needed for the level to fall by half in the phase considered. `C[C@@H](Oc1ccc2[nH]nc(-c3cnc(N4CC5(C4)CN(S(C)(=O)=O)C5)nc3)c2c1)c1c(Cl)cncc1Cl`: the IC50 in [1] came out at 487 nM; in data set [2], 880 nM; in data set [4], 30 nM; in [5], 128 nM. In addition, the half-life at 1 µM in [3] worked out at 2.2 h. For the same compound, the result in the data set with RT112/84 [6] (time 21.0 day) was inactive.

Consider `C[C@@H](Oc1ccc2[nH]nc(-c3ccc(N4CC5(CCS(=O)(=O)CC5)C4)nc3)c2c1)c1c(Cl)cncc1Cl`, for which the IC50 in data set [1] came to 132 nM; in data set [2] it was 129 nM; in data set [4], 11 nM; in the data set on RT112/84 [7] it was 17 nM; in data set [5] it was 169 nM; in the data set with KG-1, 332 nM. The IC50 with RT112/84 [8] amounted to 8.3 nM; in data set [9], 10 nM. Also, the half-life at 1 µM in [3] was determined as 1.43 h. For the same compound, the inhibition in vivo at 15 mg/kg in the data set with RT112/84 [6] was 76%.

For `COc1cc(OC)cc(N(CCNC(C)C)c2ccc3ncc(-c4cnn(C)c4)nc3c2)c1` [ERDAFITINIB], the inhibition in vivo at 12.5 mg/kg in the data set on RT112/84 [10] was found to be 12%; in the data set on RT112/84 [12] it was 73%. For the same compound, the IC50 in data set [1] was 3.8 nM; in data set [2] it was 5.2 nM; in [11] it was greater than 3000 nM; in data set [4] it was 2.6 nM; in the data set with RT112/84 [7], 2150 nM; in data set [5], 11 nM. The IC50 with DMS-114 turned out to be 11 nM; in the data set on KG-1, 2.1 nM; in the data set with RT112/84 [8], 3.6 nM; in data set [9], 3.8 nM; with RT-4, 4.4 nM.

For `C[C@@H](Oc1ccc2[nH]nc(-c3ccc(N4CC5(CCS(=O)(=O)C5)C4)nc3)c2c1)c1c(Cl)cncc1Cl`, the IC50 worked out at 111 nM in data set [1]; 104 nM in data set [2]; 3.2 nM in data set [4]; 22 nM in the data set on RT112/84 [7]; 106 nM in data set [5]; 83 nM in the data set with KG-1. Also, the figures for the IC50 (with RT112/84 [8]; in data set [9]) were 9.2 nM and 10 nM, respectively. For the same compound, the half-life at 1 µM in data set [3] was 1.7 h. Besides, in the data set on RT112/84 [6], the inhibition in vivo at 15 mg/kg amounted to 56%.

As to `C[C@@H](Oc1ccc2[nH]nc(-c3ccc(N4CC5(CCN(S(C)(=O)=O)C5)C4)nc3)c2c1)c1c(Cl)cncc1Cl`, the IC50 in data set [1] is 222 nM; in [2] it was 401 nM; in data set [4], 16 nM; with RT112/84 [7], 36 nM; in data set [5] it was 177 nM; in the data set on KG-1, 205 nM. Moreover, the IC50 (with RT112/84 [8]; in data set [9]) was 13 nM in each case. In addition, in [3], the half-life at 1 µM is greater than 1.67 h. Also, in the data set with RT112/84 [6], the inhibition in vivo at 15 mg/kg was 22%.

In the case of `C[C@@H](Oc1ccc2[nH]nc(-c3ccc(N4CC5(C4)CN(S(C)(=O)=O)C5)nc3)c2c1)c1c(Cl)cnnc1Cl`, the IC50 in data set [1] was determined as 67 nM; in data set [2], 179 nM; in data set [4], 8.6 nM; in the data set with RT112/84 [7], 89 nM; with DMS-114 it was 3000 nM; in the data set on KG-1 it was 193 nM. Further, the IC50 with RT112/84 [8] stood at 38 nM; in data set [9] it was 1580 nM; in the data set with RT-4, 144 nM. Besides, the half-life at 1 µM in data set [3] amounted to 0.3 h.

Turning to `C[C@@H](Oc1ccc2[nH]nc(-c3ccc(N4CC5(C4)CN(S(C)(=O)=O)C5)nn3)c2c1)c1c(Cl)cncc1Cl`, the IC50 in [1] came to 224 nM; in data set [2], 204 nM; in data set [4] it was 8.7 nM; in [5], 278 nM; in the data set on KG-1, 238 nM; in the data set on RT112/84 [8] it was 27 nM. The compound also displayed an IC50 in [9] of 34 nM. The half-life at 1 µM in data set [3] is greater than 1.67 h.

Consider `C[C@@H](Oc1ccc2[nH]nc(-c3ccc(N4CC5(CCN(S(C)(=O)=O)CC5)C4)nc3)c2c1)c1c(Cl)cncc1Cl`, for which the IC50 in data set [1] worked out at 127 nM; in data set [2], 212 nM; in [4] it was 14 nM; with RT112/84 [7] it was 42 nM; in [5], 147 nM; in the data set with KG-1 it was 1570 nM. Further, the 50% inhibitory concentration (IC50) (in the data set with RT112/84 [8]; in [9]) was 15 nM in each case. Besides, the half-life at 1 µM in data set [3] is greater than 1.67 h. In the data set on RT112/84 [6], the inhibition in vivo at 15 mg/kg came out at 64%.
